The target of the test is h-GABA-A α2β2γ1 (Homo sapiens (Human), UniProt P47869+Q8N1C3). Nature of the test: Two-electrode voltage clamp electrophysiology in Xenopus oocytes expressing GABAA receptors. In kind it is cell-based. To be noted: for Efficacy (GABA) %: % modulation of GABA EC20 = 100*(Fold increase−1), compound at about 30-fold its Ki α2β2γ1; for Fold increase h-GABA-A α2β2γ1 oocyte @ 30-fold Ki: Xenopus oocytes, GABA EC20, compound at about 30-fold its Ki α2β2γ1. As to the method:
Xenopus Oocytes Preparation Xenopus laevis oocytes at maturation stages V-VI were used for the expression of cloned mRNA encoding GABAA receptor subunits. Oocytes ready for RNA micro-injection were bought from Ecocyte, Castrop-Rauxel, Germany and stored in modified Barth's medium (composition in mM: NaCl 88, KCl 1, NaHCO3 2.4, HEPES 10, MgSO4 0.82, CaNO3 0.33, CaCl2 0.33, pH=7.5) at 20° C. until the experiment.
Oocytes were plated in 96-well plates for microinjection using the Roboinject automated instrument (MultiChannelSystems, Reutlingen, Germany). Approximately 50 nL of an aqueous solution containing the RNA transcripts for the subunits of the desired GABAA receptor subtype was injected into each oocyte. […] Oocytes were kept in modified Barth's medium (composition in mM: NaCl 88, KCl 1, NaHCO3 […], HEPES 10, MgSO4 0.82, CaNO3 0.33, CaCl2 0.33, pH=7.5) at 20° C. until the experiment.
Electrophysiological experiments were performed using the Roboocyte instrument (MultiChannelSystems, Reutlingen, Germany) on days 3 to 5 after the micro-injection of mRNA. During the experiment the oocytes were constantly superfused by a solution containing (in mM) NaCl 90, KCl 1, HEPES 5, MgCl2 1, CaCl2 1 (pH 7.4). Oocytes were impaled by two glass microelectrodes (resistance: 0.5-0.8 MQ) which were filled with a solution containing KCl 1M+K-acetate 1.5 M and voltage-clamped to −80 mV. The recordings were performed at room temperature using the Roboocyte two-electrode voltage clamp system (Multichannelsystem). After an initial equilibration period of 1.5 min GABA was added for 1.5 min at a concentration evoking approximately 20% of a maximal current response (EC20). After another rest interval of 2.5 min GABA was again added evoking a response of similar amplitude and shape. […] Current traces were recorded at a digitization rate of 10 Hz during and shortly before and after the GABA application.
Each compound and concentration was tested on at least 3 oocytes. Different oocytes were used for different compound concentrations.
For the analysis, the digitized current traces of the first and second GABA response were superimposed and, if necessary, rescaled to equal maximal amplitudes. The ratio between the two responses during the time interval of test compound application was calculated point by point. The extremum of the resulting “ratio trace” was taken as the efficacy (“Fold increase”) of the compound expressed as “% modulation of GABA EC20” (100*(Fold increase−1)).
(Two-electrode voltage clamp holds a large cell at a set potential and records current.)

The results in this text go back to patent publication US20240294543A1, “CYCLOHEPTA-THIENO-DIAZEPINE DERIVATIVES AS GABA A GAMMA1 PAM” (Hoffmann-La Roche Inc., priority 2021, published 2024).

Each structure is given as a SMILES string.

Consider `Cc1nnc2n1-c1sc3c(c1C(c1c(F)cccc1F)=N[C@H]2C)CCCCC3O` (mixture of isomers) [Example 9, (7S,16RS)-9-(2,6-difluorophenyl)-3,7-dimethyl-18-thia-2,4,5,8-tetrazatetracyclo[8.8.0.02,6.011,17]octadeca-1(10),3,5,8,11(17)-pentaen-16-ol], for which the “Efficacy (GABA) %” value was determined as 96% and the “Fold increase h-GABA-A α2β2γ1 oocyte @ 30-fold Ki” value came out at 1.96.
Regarding `Cc1nnc2n1-c1sc3c(c1C(c1c(F)cccc1F)=N[C@H]2C)CCCC(O)C3` (mixture of isomers) [Example 13, (7S,15RS)-9-(2,6-difluorophenyl)-3,7-dimethyl-18-thia-2,4,5,8-tetrazatetracyclo[8.8.0.02,6.011,17]octadeca-1(10),3,5,8,11(17)-pentaen-15-ol], the “Efficacy (GABA) %” value amounted to 80% and the “Fold increase h-GABA-A α2β2γ1 oocyte @ 30-fold Ki” value is 1.80.
The like results for `Cc1nnc2n1-c1sc3c(c1C(c1c(F)cccc1F)=N[C@H]2C)CCCC[C@H]3F` (single isomer, unassigned) [Example 11] were, in that order, 88% and 1.88.
Turning to `C[C@@H]1N=C(c2c(F)cccc2F)c2c(sc3c2CCCCC3)-n2c(C3CC3)nnc21` [Example 3, (7S)-3-cyclopropyl-9-(2,6-difluorophenyl)-7-methyl-18-thia-2,4,5,8-tetrazatetracyclo[8.8.0.02,6.011,17]octadeca-1(10),3,5,8,11(17)-pentaene], the “Efficacy (GABA) %” value came to 91% and the “Fold increase h-GABA-A α2β2γ1 oocyte @ 30-fold Ki” value is listed as 1.91.
Regarding `C[C@@H]1N=C(c2c(F)cccc2F)c2c(sc3c2CCCCC3)-n2c(-c3cccnn3)nnc21` [Example 4, (7S)-9-(2,6-difluorophenyl)-7-methyl-3-pyridazin-3-yl-18-thia-2,4,5,8-tetrazatetracyclo[8.8.0.02,6.011,17]octadeca-1(10),3,5,8,11(17)-pentaene], the “Efficacy (GABA) %” value turned out to be 119% and the “Fold increase h-GABA-A α2β2γ1 oocyte @ 30-fold Ki” value amounted to 2.19.
Consider `C[C@@H]1N=C(c2c(F)cccc2F)c2c(sc3c2CCCCC3)-n2ccc(=O)nc21` [Example 7, (8S)-10-(2,6-difluorophenyl)-8-methyl-19-thia-2,6,9-triazatetracyclo[9.8.0.02,7.012,18]nonadeca-1(11),3,6,9,12(18)-pentaen-5-one], for which the “Efficacy (GABA) %” value came to 169% and the “Fold increase h-GABA-A α2β2γ1 oocyte @ 30-fold Ki” value was found to be 2.69.
The corresponding values for `Cc1nc2n(n1)-c1sc3c(c1C(c1c(F)cccc1F)=N[C@H]2C)CCCCC3` [Example 20, (7S)-9-(2,6-difluorophenyl)-4,7-dimethyl-18-thia-2,3,5,8-tetrazatetracyclo[8.8.0.02,6.011,17]octadeca-1(10),3,5,8,11(17)-pentaene] are 76% and 1.76.
The like results for `C[C@@H]1N=C(c2c(F)cccc2F)c2c(sc3c2COCCO3)-n2nc(C(=O)N3CCC3)nc21` [Example 22, azetidin-1-yl-[(7S)-9-(2,6-difluorophenyl)-7-methyl-13,16-dioxa-18-thia-2,3,5,8-tetrazatetracyclo[8.8.0.02,6.011,17]octadeca-1(10),3,5,8,11(17)-pentaen-4-yl]methanone] were, in that order, 88% and 1.88.
As for `[2H]C1([2H])OCc2c(sc3c2C(c2c(F)cccc2F)=N[C@@H](C)c2nc(C(=O)N4CCC4)nn2-3)OC1([2H])[2H]` [Example 23, azetidin-1-yl-[(7S)-14,14,15,15-tetradeuterio-9-(2,6-difluorophenyl)-7-methyl-13,16-dioxa-18-thia-2,3,5,8-tetrazatetracyclo[8.8.0.02,6.011,17]octadeca-1(10),3,5,8,11(17)-pentaen-4-yl]methanone], the “Efficacy (GABA) %” value worked out at 63% and the “Fold increase h-GABA-A α2β2γ1 oocyte @ 30-fold Ki” value turned out to be 1.63.
Consider `C[C@@H]1N=C(c2c(F)cccc2F)c2c(sc3c2COCCO3)-n2nc(C(=O)NCCF)nc21` [Example 25, (7S)-9-(2,6-difluorophenyl)-N-(2-fluoroethyl)-7-methyl-13,16-dioxa-18-thia-2,3,5,8-tetrazatetracyclo[8.8.0.02,6.011,17]octadeca-1(10),3,5,8,11(17)-pentaene-4-carboxamide], for which the “Efficacy (GABA) %” value was 99% and the “Fold increase h-GABA-A α2β2γ1 oocyte @ 30-fold Ki” value stood at 1.99.
Take `Cc1cn2c(nc1=O)[C@H](C)N=C(c1c(F)cccc1F)c1c-2sc2c1CCCCC2` [Example 26, (8S)-10-(2,6-difluorophenyl)-4,8-dimethyl-19-thia-2,6,9-triazatetracyclo[9.8.0.02,7.012,18]nonadeca-1(11),3,6,9,12(18)-pentaen-5-one]: the “Efficacy (GABA) %” value turned out to be 109% and the “Fold increase h-GABA-A α2β2γ1 oocyte @ 30-fold Ki” value stood at 2.09.
On to `Cc1nnc2n1-c1sc3c(c1C(c1c(F)cccc1F)=N[C@H]2C)CC[C@@H](O)CC3` [Example 27, (7S,14R)-9-(2,6-difluorophenyl)-3,7-dimethyl-18-thia-2,4,5,8-tetrazatetracyclo[8.8.0.02,6.011,17]octadeca-1(10),3,5,8,11(17)-pentaen-14-ol], for which the “Efficacy (GABA) %” value was found to be 77% and the “Fold increase h-GABA-A α2β2γ1 oocyte @ 30-fold Ki” value stood at 1.77.
In the case of `Cc1nc2n(n1)-c1sc3c(c1C(c1c(F)cccc1F)=N[C@H]2C)COCCO3` [Example 28, (7S)-9-(2,6-difluorophenyl)-4,7-dimethyl-13,16-dioxa-18-thia-2,3,5,8-tetrazatetracyclo[8.8.0.02,6.011,17]octadeca-1(10),3,5,8,11(17)-pentaene], the “Efficacy (GABA) %” value came to 40% and the “Fold increase h-GABA-A α2β2γ1 oocyte @ 30-fold Ki” value turned out to be 1.40.
For `C[C@@H]1N=C(c2c(F)cccc2F)c2c(sc3c2COCCO3)-n2nc(C(=O)N3CC(OC(C)(C)C)C3)nc21` [Example 29, (3-tert-butoxyazetidin-1-yl)-[(7S)-9-(2,6-difluorophenyl)-7-methyl-13,16-dioxa-18-thia-2,3,5,8-tetrazatetracyclo[8.8.0.02,6.011,17]octadeca-1(10),3,5,8,11(17)-pentaen-4-yl]methanone], the “Efficacy (GABA) %” value turned out to be 79% and the “Fold increase h-GABA-A α2β2γ1 oocyte @ 30-fold Ki” value is reported as 1.79.
With `C[C@@H]1N=C(c2c(F)cccc2F)c2c(sc3c2COCCO3)-n2nc(C(=O)NC3CC3)nc21` [Example 36], the “Efficacy (GABA) %” value is on record as 89% and the “Fold increase h-GABA-A α2β2γ1 oocyte @ 30-fold Ki” value is on record as 1.89.
Take `CCNC(=O)c1nc2n(n1)-c1sc3c(c1C(c1c(F)cccc1F)=N[C@H]2C)COCCO3` [Example 37, (7S)-9-(2,6-difluorophenyl)-N-ethyl-7-methyl-13,16-dioxa-18-thia-2,3,5,8-tetrazatetracyclo[8.8.0.02,6.011,17]octadeca-1(10),3,5,8,11(17)-pentaene-4-carboxamide]: the “Efficacy (GABA) %” value turned out to be 86% and the “Fold increase h-GABA-A α2β2γ1 oocyte @ 30-fold Ki” value was 1.86.
Consider `Cc1nc2n(n1)-c1sc3c(c1C(c1c(F)cccc1F)=N[C@H]2C)COC[C@H](C)O3` [Example 39, (7S,15S)-9-(2,6-difluorophenyl)-4,7,15-trimethyl-13,16-dioxa-18-thia-2,3,5,8-tetrazatetracyclo[8.8.0.02,6.011,17]octadeca-1(10),3,5,8,11(17)-pentaene], for which the “Efficacy (GABA) %” value was 150% and the “Fold increase h-GABA-A α2β2γ1 oocyte @ 30-fold Ki” value was 2.50.
The corresponding values for `C[C@@H]1N=C(c2c(F)cccc2F)c2c(sc3c2COC[C@H](C)O3)-n2nc(C(=O)N3CC(OC(C)(C)C)C3)nc21` [Example 41, (3-tert-butoxyazetidin-1-yl)-[(7S,15S)-9-(2,6-difluorophenyl)-7,15-dimethyl-13,16-dioxa-18-thia-2,3,5,8-tetrazatetracyclo[8.8.0.02,6.011,17]octadeca-1(10),3,5,8,11(17)-pentaen-4-yl]methanone] are 167% and 2.67.
The corresponding values for `CCc1nnc2n1-c1sc3c(c1C(c1c(F)cccc1F)=N[C@H]2C)COCCO3` [Example 42, (7S)-9-(2,6-difluorophenyl)-3-ethyl-7-methyl-13,16-dioxa-18-thia-2,4,5,8-tetrazatetracyclo[8.8.0.02,6.011,17]octadeca-1(10),3,5,8,11(17)-pentaene] are 137% and 2.37.
